Experimental data reported in ChEMBL document CHEMBL1201862, “PubChem BioAssay data set” (2004).
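Following 48 hours of exposure in 96-well plates, responses at five concentrations were used to interpolate endpoints linearly. GI50 marks 50% less growth.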 Activity calls are given as the source filed them. Cut-off read from the data, not from the text of the source: active = GI50 up to about 1.1 µM and inactive = higher.

Assays:
Assay in all cases: inhibition of tumour cell growth, NCI panel, 48 h
[1] = tested on: UO-31
[2] = tested on: MCF7
[3] = tested on: PC-3
[4] = tested on: HCT-15
[5] = tested on: NCI/ADR-RES
[6] = tested on: MDA-MB-435
[7] = tested on: K562
[8] = tested on: CCRF-CEM
[9] = tested on: SF-295
[10] = tested on: MDA-MB-231
[11] = tested on: LOX IMVI
[12] = tested on: T47D
[13] = tested on: TK-10
[14] = tested on: OVCAR-8
[15] = tested on: BT-549
[16] = tested on: COLO 205
[17] = tested on: NCI-H226
[18] = tested on: HOP-62
[19] = tested on: A498
[20] = tested on: SK-OV-3
[21] = tested on: UACC-257
[22] = tested on: SR
[23] = tested on: SW-620
[24] = tested on: OVCAR-4
[25] = tested on: SNB-19
[26] = tested on: DU-145
[27] = tested on: SF-268
[28] = tested on: HCT-116
[29] = tested on: HT-29
[30] = tested on: EKVX
[31] = tested on: IGROV-1
[32] = tested on: HOP-92
[33] = tested on: M14
[34] = tested on: KM12
[35] = tested on: U-251
[36] = tested on: RXF 393
[37] = tested on: HCC 2998
[38] = tested on: CAKI-1
[39] = tested on: SK-MEL-5
[40] = tested on: Hs-578T
[41] = tested on: RPMI-8226
[42] = tested on: NCI-H23
[43] = tested on: SK-MEL-28
[44] = tested on: UACC-62
[45] = tested on: MOLT-4
[46] = tested on: SK-MEL-2
[47] = tested on: HL-60
[48] = tested on: SNB-75
[49] = tested on: 786-0
[50] = tested on: SF-539
[51] = tested on: ACHN
[52] = tested on: NCI-H460
[53] = tested on: A549
[54] = tested on: NCI-H522
[55] = tested on: SN12C
[56] = tested on: OVCAR-3
[57] = tested on: OVCAR-5

CC(=O)Nc1ccc(-c2nc3ccccc3s2)cc1
GI50 [1]: 45.5 µM (inactive) | GI50 [2]: 67.5 µM (inactive) | GI50 [3]: 64.7 µM (inactive) | GI50 [4]: 81.5 µM | GI50 [5]: 28.7 µM (inactive) | GI50 [6]: 97.5 µM (inactive) | GI50 [7]: 1.96 µM (inactive) | GI50 [8]: 64.1 µM (inactive) | GI50 [9]: 29.6 µM (inactive) | GI50 [10]: 26.8 µM (inactive) | GI50 [11]: 36.9 µM (inactive) | GI50 [12]: 31.1 µM (inactive) | GI50 [13]: 57.8 µM (inactive) | GI50 [14]: 35.4 µM (inactive) | GI50 [15]: > 10 µM (inactive) | GI50 [16]: 58.9 µM (inactive) | GI50 [17]: 44.8 µM (inactive) | GI50 [18]: 20.9 µM (inactive) | GI50 [19]: 13.4 µM (inactive) | GI50 [20]: 21.2 µM (inactive) | GI50 [21]: > 100 µM (inactive) | GI50 [22]: 45.6 µM (inactive) | GI50 [23]: 53.6 µM (inactive) | GI50 [24]: 29.4 µM (inactive) | GI50 [25]: 33.4 µM (inactive) | GI50 [26]: 4.9 µM (inactive) | GI50 [27]: 51.3 µM (inactive) | GI50 [28]: 86.7 µM (inactive) | GI50 [29]: 73.1 µM (inactive) | GI50 [30]: 85.1 µM (inactive) | GI50 [31]: 47.6 µM (inactive) | GI50 [32]: 55.5 µM (inactive) | GI50 [33]: 63.1 µM (inactive) | GI50 [34]: 35.3 µM (inactive) | GI50 [35]: 27.5 µM (inactive) | GI50 [36]: 23.6 µM (inactive) | GI50 [37]: 73.8 µM (inactive) | GI50 [38]: 22.8 µM (inactive) | GI50 [39]: > 100 µM (inactive) | GI50 [40]: 40.3 µM (inactive) | GI50 [41]: > 100 µM (inactive) | GI50 [42]: 52.1 µM (inactive) | GI50 [43]: 71.9 µM (inactive) | GI50 [44]: 66.7 µM (inactive) | GI50 [45]: 20.2 µM (inactive) | GI50 [46]: 57.4 µM (inactive) | GI50 [47]: 81.7 µM (inactive) | GI50 [48]: 30.8 µM (inactive) | GI50 [49]: 24 µM (inactive) | GI50 [50]: 26.2 µM (inactive) | GI50 [51]: 32.4 µM (inactive) | GI50 [52]: 36.1 µM (inactive)

CCNC(=S)Nc1c(C#N)c2n(c1C(=O)OCC)CCCCC2
GI50 [1]: > 100 µM (inactive) | GI50 [2]: > 100 µM (inactive) | GI50 [3]: > 100 µM (inactive) | GI50 [4]: > 100 µM | GI50 [5]: > 100 µM (inactive) | GI50 [6]: > 100 µM (inactive) | GI50 [7]: > 100 µM (inactive) | GI50 [8]: > 100 µM (inactive) | GI50 [9]: > 100 µM (inactive) | GI50 [10]: > 100 µM (inactive) | GI50 [11]: > 100 µM (inactive) | GI50 [12]: > 100 µM (inactive) | GI50 [13]: > 100 µM (inactive) | GI50 [14]: > 100 µM (inactive) | GI50 [15]: 30.9 µM (inactive) | GI50 [16]: > 100 µM (inactive) | GI50 [17]: > 100 µM (inactive) | GI50 [18]: 35.2 µM (inactive) | GI50 [19]: > 100 µM (inactive) | GI50 [20]: > 100 µM (inactive) | GI50 [21]: > 100 µM (inactive) | GI50 [22]: > 100 µM (inactive) | GI50 [23]: > 100 µM (inactive) | GI50 [24]: > 100 µM (inactive) | GI50 [25]: > 100 µM (inactive) | GI50 [26]: > 100 µM (inactive) | GI50 [27]: 62.7 µM (inactive) | GI50 [28]: > 100 µM (inactive) | GI50 [29]: > 100 µM (inactive) | GI50 [30]: > 100 µM (inactive) | GI50 [31]: > 100 µM (inactive) | GI50 [32]: 42.3 µM (inactive) | GI50 [33]: > 100 µM (inactive) | GI50 [34]: > 100 µM (inactive) | GI50 [35]: > 100 µM (inactive) | GI50 [36]: 33.1 µM (inactive) | GI50 [37]: > 100 µM (inactive) | GI50 [38]: > 100 µM (inactive) | GI50 [39]: > 100 µM (inactive) | GI50 [40]: 35.3 µM (inactive) | GI50 [41]: 71.3 µM (inactive) | GI50 [42]: 69 µM (inactive) | GI50 [43]: > 100 µM (inactive) | GI50 [44]: > 100 µM (inactive) | GI50 [45]: > 100 µM (inactive) | GI50 [46]: > 100 µM (inactive) | GI50 [47]: > 100 µM (inactive) | GI50 [48]: > 100 µM (inactive) | GI50 [49]: 76.4 µM (inactive) | GI50 [50]: 64.7 µM (inactive) | GI50 [51]: > 100 µM (inactive) | GI50 [52]: > 100 µM (inactive)

COc1ccc(C2SCC(=O)N2c2ccc(-n3c(-c4ccccc4)nc4ccccc4c3=O)cc2)cc1 (stereo not given)
GI50 [1]: 25.3 µM (inactive) | GI50 [2]: 98.4 µM (inactive) | GI50 [53]: > 100 µM (inactive) | GI50 [3]: 42.1 µM (inactive) | GI50 [4]: 48.5 µM | GI50 [5]: 8.89 µM (inactive) | GI50 [6]: > 100 µM (inactive) | GI50 [7]: > 100 µM (inactive) | GI50 [8]: > 100 µM (inactive) | GI50 [9]: > 100 µM (inactive) | GI50 [10]: > 100 µM (inactive) | GI50 [11]: > 100 µM (inactive) | GI50 [12]: 21.6 µM (inactive) | GI50 [13]: > 100 µM (inactive) | GI50 [14]: > 100 µM (inactive) | GI50 [54]: 36.4 µM (inactive) | GI50 [15]: > 100 µM (inactive) | GI50 [16]: > 100 µM (inactive) | GI50 [17]: > 100 µM (inactive) | GI50 [18]: > 100 µM (inactive) | GI50 [19]: > 100 µM (inactive) | GI50 [20]: 73.3 µM (inactive) | GI50 [21]: > 100 µM (inactive) | GI50 [55]: > 100 µM (inactive) | GI50 [22]: 45 µM (inactive) | GI50 [23]: > 100 µM (inactive) | GI50 [24]: > 100 µM (inactive) | GI50 [25]: > 100 µM (inactive) | GI50 [26]: > 100 µM (inactive) | GI50 [27]: > 100 µM (inactive) | GI50 [28]: > 100 µM (inactive) | GI50 [29]: > 100 µM (inactive) | GI50 [30]: > 100 µM (inactive) | GI50 [31]: > 100 µM (inactive) | GI50 [32]: 46.7 µM (inactive) | GI50 [33]: > 100 µM (inactive) | GI50 [34]: 90.8 µM (inactive) | GI50 [35]: > 100 µM (inactive) | GI50 [37]: 60.3 µM (inactive) | GI50 [38]: > 100 µM (inactive) | GI50 [39]: > 100 µM (inactive) | GI50 [56]: > 100 µM (inactive) | GI50 [40]: > 10 µM (inactive) | GI50 [41]: > 100 µM (inactive) | GI50 [42]: > 100 µM (inactive) | GI50 [43]: > 100 µM (inactive) | GI50 [44]: 17.8 µM (inactive) | GI50 [45]: 24.6 µM (inactive) | GI50 [46]: 6.95 µM (inactive) | GI50 [47]: > 100 µM (inactive) | GI50 [48]: 15.8 µM (inactive) | GI50 [49]: > 100 µM (inactive) | GI50 [50]: > 100 µM (inactive) | GI50 [57]: > 100 µM (inactive) | GI50 [51]: > 100 µM (inactive) | GI50 [52]: > 100 µM (inactive)
